In patent US20020002171A1, “Materials and methods for killing nematodes and nematode eggs” (priority 2000, published 2002):

The molecules below were run on Caenorhabditis elegans (assay: C. elegans L1 nematicidal dose response in 96-well plates, 5 day visual score (Example 2; same procedure for Example 7, Table 3)). Details: 0.3 μM, C. elegans L1, scored day 5.
Assay type: in vivo
Design: key to 5 Day Visual Score V1 / 5 Day Visual Score V2 / 5 Day Visual Score V3 / 5 Day Visual Score V4 / 5 Day Visual Score V6 / 5 Day Visual Score V5 / Initial HTS Run Visual Score / Follow-up HTS Run Visual Score: Dead: only stiff L1s (no movement); Dead (L4): worms are dead, but at a later larval stage; majority of worms are L1 (based on size) worms move when plate is tapped; majority of worms are L2 (based on size); majority of worms are L3 (based on size); majority of worms are L4 (based on size); AD: majority of worms are adult; #AD: 5 adult worms or less; B!: sterile (0-25 progeny); B: low broodsize (25-100 progeny); ˜B: moderate broodsize (100-250 progeny); <: reduced broodsize (250-500 progeny); OK: no effect (˜1000+ progeny)
Method: Caenorhabditis elegans adults were grown on Nematode Growth Medium (NGM) until they produced eggs, then the adults were removed.
The eggs were allowed to hatch, and the L1 larvae collected. See The Nematode Caenorhabditis elegans (1988) Cold Spring Harbor Laboratory Press. Using a Matrix Programmable Pipette, the L1s were distributed into 96-well tissue culture plates, 20 L1 in 50 μl NGM per well. Antibiotic/Antimyoticwas added to each well, and 1% by weight E. coli strain HB101. The subject anthelmintic compounds were stored at 5 mM in 100% DMSO. 0.7 μl of compounds 1-31 were added to the left-most column of wells to yield a final concentration of 70 μM in 1.4% DMSO, with 1.4% DMSO only as the control. The compounds were then subjected to 5 more 3-fold dilutions from left to right to yield 6 column concentrations of 70 μM, 23.3 μM, 7.8 μM, 2.6 μM, 0.9 μM, and 0.3 μM. Plates were stored in air-tight Rubbermaid plastic boxes at 20° C. The nematodes had cleared all control wells by day 4, and nematode viability was scored by visual examination under a 100× dissecting microsope on day 5. A visual viability scoring system was used as follows:
Column V1 has a compound concentration of 70 μM with sequential 3-fold dilutions reported in columns V2, V3, V4, V5, and V6, respectively, such that the V6 concentration was 0.3 μM.
The nematicidal activity of anthelmintic Compositions 48-168 were determined in accordance with the procedure outlined in Example 2.

**Q.** `CCCCOc1ccc(-c2noc(C3CCC(NC(=O)c4ccc5c(c4)OCO5)CC3)n2)cc1` (centres unmarked) [AKC 103] was tested. Which “5 Day Visual Score V6” value did it give?
**A.** < (reduced broodsize (250-500 progeny))

**Q.** With `CCCCOc1ccc(C(=O)N2CC(OCCCc3ccccc3)CC2C(=O)NCc2ccccc2Br)cc1` (centres unmarked) [AKC 102] as the molecule, how does the “5 Day Visual Score V6” value read?
**A.** B (low broodsize (25-100 progeny))

**Q.** Which “5 Day Visual Score V6” value does the source give for `CC(C)(C)C1=NOC(c2ccc(-c3ccccc3)cc2)C1C(=O)NCCc1ccccc1F` (centres unmarked) [AKC 120] here?
**A.** OK (no effect (˜1000+ progeny))

Same assay, conditions: 0.9 μM, C. elegans L1, scored day 5

**Q.** For `CCCCOc1ccc(-c2noc(C3CCC(NC(=O)c4ccc5c(c4)OCO5)CC3)n2)cc1` (centres unmarked) [AKC 103], which “5 Day Visual Score V5” value is on record?
**A.** L4/#AD/B

**Q.** How did the “5 Day Visual Score V5” value turn out when `CC(C)(C)C1=NOC(c2ccc(-c3ccccc3)cc2)C1C(=O)NCCc1ccccc1F` (centres unmarked) [AKC 120] was run?
**A.** #AD/˜B

Same assay, conditions: 2.6 μM, C. elegans L1, scored day 5

**Q.** How did the “5 Day Visual Score V4” value turn out when `CCCCOc1ccc(-c2noc(C3CCC(NC(=O)c4ccc5c(c4)OCO5)CC3)n2)cc1` (centres unmarked) [AKC 103] was run?
**A.** B (low broodsize (25-100 progeny))

**Q.** For `CCCCOc1ccc(C(=O)N2CC(OCCCc3ccccc3)CC2C(=O)NCc2ccccc2Br)cc1` (centres unmarked) [AKC 102], which “5 Day Visual Score V4” value is on record?
**A.** L3

Same assay, conditions: 7.8 μM, C. elegans L1, scored day 5

**Q.** For `CCCCOc1ccc(-c2noc(C3CCC(NC(=O)c4ccc5c(c4)OCO5)CC3)n2)cc1` (centres unmarked) [AKC 103], which “5 Day Visual Score V3” value is on record?
**A.** Dead(L4)

**Q.** Which “5 Day Visual Score V3” value does the source give for `CC(C)(C)C1=NOC(c2ccc(-c3ccccc3)cc2)C1C(=O)NCCc1ccccc1F` (centres unmarked) [AKC 120] here?
**A.** L1

Same assay, conditions: 23.3 μM, C. elegans L1, scored day 5

**Q.** With `CCCCOc1ccc(-c2noc(C3CCC(NC(=O)c4ccc5c(c4)OCO5)CC3)n2)cc1` (centres unmarked) [AKC 103] as the molecule, how does the “5 Day Visual Score V2” value read?
**A.** Dead(L3/L4)

Same assay, conditions: 70 μM, C. elegans L1, scored day 5

**Q.** `CC(C)(C)C1=NOC(c2ccc(-c3ccccc3)cc2)C1C(=O)NCCc1ccccc1F` (centres unmarked) [AKC 120] was tested. Which “5 Day Visual Score V1” value did it give?
**A.** L1

Same assay, conditions: Follow-up HTS run

**Q.** Which “Follow-up HTS Run % Run” value does the source give for `Cc1cccc(C)c1N1CCN(c2nsc(N3CCC(O)CC3)n2)CC1` [compound 218] here?
**A.** 78%

**Q.** And the “Follow-up HTS Run Visual Score” value?
**A.** Dead

**Q.** And the “Follow-up HTS Run mOD” value?
**A.** 125 mOD

**Q.** How did the “Follow-up HTS Run % Run” value turn out when `CC1CC(C)CN(c2nc(NCc3c(F)cccc3F)ns2)C1` (centres unmarked) [compound 245] was run?
**A.** 117%

**Q.** And the “Follow-up HTS Run Visual Score” value?
**A.** B! (sterile (0-25 progeny))

**Q.** And the “Follow-up HTS Run mOD” value?
**A.** 189 mOD

**Q.** With `CCN(c1nc(NCc2ccc(C(F)(F)F)cc2)ns1)C1CCCCC1` [compound 305] as the molecule, how does the “Follow-up HTS Run % Run” value read?
**A.** 112%

**Q.** What about the “Follow-up HTS Run Visual Score” value of the same molecule?
**A.** L4

**Q.** What about the “Follow-up HTS Run mOD” value of the same molecule?
**A.** 181 mOD

**Q.** `Cc1cccc(C)c1N1CCN(c2nc(NCc3ccccc3C(F)(F)F)ns2)CC1` [compound 318] was tested. Which “Follow-up HTS Run % Run” value did it give?
**A.** 111%

**Q.** And the “Follow-up HTS Run Visual Score” value?
**A.** B (low broodsize (25-100 progeny))

**Q.** What about the “Follow-up HTS Run mOD” value of the same molecule?
**A.** 178 mOD

Same assay, conditions: Initial HTS run

**Q.** With `Cc1cccc(C)c1N1CCN(c2nsc(N3CCC(O)CC3)n2)CC1` [compound 218] as the molecule, how does the “Initial HTS Run % Run” value read?
**A.** 91%

**Q.** And the “Initial HTS Run Visual Score” value?
**A.** 1AD/B!

**Q.** What about the “Initial HTS Run mOD” value of the same molecule?
**A.** 100 mOD

**Q.** For `CC1CC(C)CN(c2nc(NCc3c(F)cccc3F)ns2)C1` (centres unmarked) [compound 245], which “Initial HTS Run % Run” value is on record?
**A.** 103%

**Q.** And the “Initial HTS Run Visual Score” value?
**A.** B!-Few Eggs

**Q.** What about the “Initial HTS Run mOD” value of the same molecule?
**A.** 113 mOD

**Q.** Which results are given for `CCN(c1nc(NCc2ccc(C(F)(F)F)cc2)ns1)C1CCCCC1` [compound 305]?
**A.** Initial HTS Run % Run: 102%; Initial HTS Run mOD: 112 mOD

**Q.** With `Cc1cccc(C)c1N1CCN(c2nc(NCc3ccccc3C(F)(F)F)ns2)CC1` [compound 318] as the molecule, how does the “Initial HTS Run % Run” value read?
**A.** 101%

**Q.** What about the “Initial HTS Run Visual Score” value of the same molecule?
**A.** B!-Clear-Few Eggs

**Q.** And the “Initial HTS Run mOD” value?
**A.** 111 mOD

Same assay, conditions: dose response, dilution V1, 5 day

**Q.** With `Cc1cccc(C)c1N1CCN(c2nc(NCc3ccccc3C(F)(F)F)ns2)CC1` [compound 318] as the molecule, how does the “5 Day Visual Score V1” value read?
**A.** B (low broodsize (25-100 progeny))

Same assay, conditions: dose response, dilution V1, day 5

**Q.** `Cc1cccc(C)c1N1CCN(c2nsc(N3CCC(O)CC3)n2)CC1` [compound 218] was tested. Which “5 Day Visual Score V1” value did it give?
**A.** Dead

**Q.** How did the “5 Day Visual Score V1” value turn out when `CC1CC(C)CN(c2nc(NCc3c(F)cccc3F)ns2)C1` (centres unmarked) [compound 245] was run?
**A.** L2/Dead(L3)

Same assay, conditions: dose response, dilution V2, 5 day

**Q.** Which “5 Day Visual Score V2” value does the source give for `Cc1cccc(C)c1N1CCN(c2nc(NCc3ccccc3C(F)(F)F)ns2)CC1` [compound 318] here?
**A.** ˜B (moderate broodsize (100-250 progeny))

Same assay, conditions: dose response, dilution V2, day 5

**Q.** How did the “5 Day Visual Score V2” value turn out when `Cc1cccc(C)c1N1CCN(c2nsc(N3CCC(O)CC3)n2)CC1` [compound 218] was run?
**A.** Dead

**Q.** `CC1CC(C)CN(c2nc(NCc3c(F)cccc3F)ns2)C1` (centres unmarked) [compound 245] was tested. Which “5 Day Visual Score V2” value did it give?
**A.** #AD/˜B

**Q.** For `CCN(c1nc(NCc2ccc(C(F)(F)F)cc2)ns1)C1CCCCC1` [compound 305], which “5 Day Visual Score V2” value is on record?
**A.** < (reduced broodsize (250-500 progeny))

Same assay, conditions: dose response, dilution V3, 5 day

**Q.** `Cc1cccc(C)c1N1CCN(c2nc(NCc3ccccc3C(F)(F)F)ns2)CC1` [compound 318] was tested. Which “5 Day Visual Score V3” value did it give?
**A.** OK (no effect (˜1000+ progeny))

Same assay, conditions: dose response, dilution V3, day 5

**Q.** `CC1CC(C)CN(c2nc(NCc3c(F)cccc3F)ns2)C1` (centres unmarked) [compound 245] was tested. Which “5 Day Visual Score V3” value did it give?
**A.** < (reduced broodsize (250-500 progeny))

**Q.** With `CCN(c1nc(NCc2ccc(C(F)(F)F)cc2)ns1)C1CCCCC1` [compound 305] as the molecule, how does the “5 Day Visual Score V3” value read?
**A.** OK (no effect (˜1000+ progeny))

Same assay, conditions: dose response, dilution V4, 5 day

**Q.** For `Cc1cccc(C)c1N1CCN(c2nc(NCc3ccccc3C(F)(F)F)ns2)CC1` [compound 318], which “5 Day Visual Score V4” value is on record?
**A.** OK (no effect (˜1000+ progeny))

Same assay, conditions: dose response, dilution V4, day 5

**Q.** For `Cc1cccc(C)c1N1CCN(c2nsc(N3CCC(O)CC3)n2)CC1` [compound 218], which “5 Day Visual Score V4” value is on record?
**A.** OK (no effect (˜1000+ progeny))

**Q.** `CC1CC(C)CN(c2nc(NCc3c(F)cccc3F)ns2)C1` (centres unmarked) [compound 245] was tested. Which “5 Day Visual Score V4” value did it give?
**A.** OK (no effect (˜1000+ progeny))

**Q.** For `CCN(c1nc(NCc2ccc(C(F)(F)F)cc2)ns1)C1CCCCC1` [compound 305], which “5 Day Visual Score V4” value is on record?
**A.** OK (no effect (˜1000+ progeny))

Same assay, conditions: dose response, dilution V5, 5 day

**Q.** For `Cc1cccc(C)c1N1CCN(c2nc(NCc3ccccc3C(F)(F)F)ns2)CC1` [compound 318], which “5 Day Visual Score V5” value is on record?
**A.** OK (no effect (˜1000+ progeny))

Same assay, conditions: dose response, dilution V5, day 5

**Q.** How did the “5 Day Visual Score V5” value turn out when `Cc1cccc(C)c1N1CCN(c2nsc(N3CCC(O)CC3)n2)CC1` [compound 218] was run?
**A.** OK (no effect (˜1000+ progeny))

**Q.** How did the “5 Day Visual Score V5” value turn out when `CC1CC(C)CN(c2nc(NCc3c(F)cccc3F)ns2)C1` (centres unmarked) [compound 245] was run?
**A.** OK (no effect (˜1000+ progeny))

**Q.** How did the “5 Day Visual Score V5” value turn out when `CCN(c1nc(NCc2ccc(C(F)(F)F)cc2)ns1)C1CCCCC1` [compound 305] was run?
**A.** OK (no effect (˜1000+ progeny))

Same assay, conditions: dose response, dilution V6, 5 day

**Q.** How did the “5 Day Visual Score V6” value turn out when `Cc1cccc(C)c1N1CCN(c2nc(NCc3ccccc3C(F)(F)F)ns2)CC1` [compound 318] was run?
**A.** OK (no effect (˜1000+ progeny))

Same assay, conditions: dose response, dilution V6, day 5

**Q.** Which “5 Day Visual Score V6” value does the source give for `Cc1cccc(C)c1N1CCN(c2nsc(N3CCC(O)CC3)n2)CC1` [compound 218] here?
**A.** OK (no effect (˜1000+ progeny))

**Q.** Which “5 Day Visual Score V6” value does the source give for `CC1CC(C)CN(c2nc(NCc3c(F)cccc3F)ns2)C1` (centres unmarked) [compound 245] here?
**A.** OK (no effect (˜1000+ progeny))

**Q.** For `CCN(c1nc(NCc2ccc(C(F)(F)F)cc2)ns1)C1CCCCC1` [compound 305], which “5 Day Visual Score V6” value is on record?
**A.** OK (no effect (˜1000+ progeny))
